Where two headings read alike, the source gives them in different places.
What was measured:
PDGFR β enzyme = biological target: T1, PDGFR β enzyme (Homo sapiens, UniProt P09619); assay: Inhibitory activity to PDGFR β enzyme, HTRF kinEASE TK kit; format: biochemical
T1 construct: purchased Invitrogen P3082
Procedure, shortened: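 Recombinant human PDGFRβ phosphorylating TK-substrate in kinase buffer containing MgCl2, MnCl2, DTT and SEB, with ATP. Phosphorylation detected by HTRF using TK-Ab-Cryptate and Sa-XL665.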

[1] = system: PC-3 cell Akt (Ser473) phosphorylation; assay: Inhibition of phosphorylation level of PC-3 cell Akt (Ser473), Cisbio HTRF phospho Akt (Ser473) cell-based assay; set-up: species or system human; details: hEGF 100 ng/ml stimulation, 1st and 2nd test where printed
Method: The inhibitory activity of the compounds of present invention to the phosphorylation level of PC-3 cell Akt (Ser473) is studied by using Cisbio HTRF phospho Akt (Ser473) cell-based assay test kit.
Cell strain: PC-3 prostate cancer cells line (cell bank of Chinese Academy of Sciences) is cultured by using culture medium (F12K+10% FBS).
hEGF is prepared as stock solution of 100 ug/ml with 10 mM acetic acid, and the stock solution is diluted to 200 ng/ml with serum-free medium, added 50 ul to each well to be stimulated.
b) Preparation of Complete Lysate • 4×Lysis Buffer is diluted 4 times with ddH2O to prepare 1×Lysis Buffer. • 100×Blocking Reagent is diluted 100 times with 1×Lysis Buffer.
c) Preparation of Detection Liquid • 20×Anti-Phospho-Akt is diluted 20 times with Detection Buffer. • 20×Anti-Akt is diluted 20 times with Detection Buffer.
The compounds are diluted with DMSO, and the working concentration of compounds is 100 times of detection concentration.
Cells in logarithmic growth phase are collected, counted, and resuspended with complete culture medium;
The cell concentration is adjusted to appropriate concentration, and cell suspension is inoculated into 96 well plates at 50 μl per well;
Cells are incubated for more than 4 h in the 5% CO2 incubator at temperature of 37° C., relative humidity of 100%;
Cell plate is removed from the incubator. The cell suspension is aspirated gently, and 50 ul serum-free F12K medium is quickly added, then the cell plate is placed into the incubator to culture overnight.
The compounds are diluted in a linear gradient with DMSO.
0.5 ul compounds is added into the test well, mixed on oscillators, and incubated at room temperature for 2 hours.
Proportioned hEGF solution is added to test well at 50 μl per well, and the final concentration is 100 ng/ml. serum-free medium is added into The negative control well at 50 μl per well.
The solution is mixed on oscillator and incubated at room temperature for 2 hours.
The liquid in 96 well plates is aspirated by multichannel pipette or the supernatant is discarded gently. The proportioned complete lysate is added quickly at 50 μl per well.
The solution is mixed on oscillator and lysed at room temperature for 30 min.
16 μl cell lysate is transferred from the 96 well plates to white low volume 384 well plates, and the proportioned two pairs of detection antibody are added. The solution is mixed on oscillator, and incubated at room temperature for 4 hours to detect the readings.

PI3 K γ = biological target: T2, PI3 K γ (Homo sapiens, UniProt P48736); assay: Inhibitory activity to PI3K γ, PI 3-Kinase (human) HTRF Assay kit; format: biochemical
T2 construct: purchased Biology, Medicilon
Procedure, shortened: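 HTRF kinase assay with PI3Kγ at 80 ng/well, 10 μM PIP2 and 100 μM ATP (both final) in DTT-containing reaction buffer, 1% DMSO. Preliminary screen at 10 μM and 1 μM compound, followed by IC50 determination for selected compounds.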

PI3Kδ = biological target: T3, PI3Kδ (Homo sapiens, UniProt O00329); assay: Inhibitory activity to PI3K δ, PI 3-Kinase (human) HTRF Assay kit; format: biochemical
T3 construct: purchased Millipore 14-604
Procedure, shortened: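 Inhibition of human PI3Kδ was assessed with the Millipore PI 3-Kinase (human) HTRF Assay kit. PI3Kδ was screened at 2 ng/well, diluted in 2×PIP2 operating fluid. Reactions were 20 μL and contained 100 μM ATP. Stop solution was Stop A and Stop B mixed 3:1. Detection solution was DM C, DM A and DM B mixed 18:1:1. Compounds were prepared from DMSO stocks, and percent inhibition was reported.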

[2] = system: PC-3 human prostate cancer cell strain; assay: Antitumor cell proliferation in vitro, CCK-8 detection kit, PC-3; format: cell-based; details: PC-3 cells, 1st and 2nd test where printed
Method: (§1) The half inhibitory concentration IC50 of proliferation of three kinds of tumor cell strain (U87MG, PC-3, BT474) for 12 candidate compounds of the present invention is detected by CCK-8 detection kits.
PC-3 human prostate cancer cell strain (cell bank of Chinese Academy of Sciences)
(§2) The studied compounds are dissolved by DMSO to make the final concentration 10 mM.
(§3) • a) Collecting the cells in logarithmic phase, counting, and resuspending the cells with complete medium. • b) Adjusting the concentration of cells to a suitable concentration, inoculating in 96 well plates, each well is inoculated to 100 μl cell suspension.
(§4) c) incubating cells for 24 hours in a 5% CO2 incubator at temperature of 37° C., under the condition of 100% relative humidity.
(§5) a) The cells in logarithmic phase is collected, counted, resuspended with complete medium. The concentration of cells is adjusted to a suitable concentration (determined in accordance with the optimizable test results of cell density), and the cells is inoculated in 96 well plates, wherein each well is inoculated 100 μl cell suspension, Cells are incubated for 24 hours in 5% CO2 incubator at temperature of 37° C. under the condition of 100% relative humidity.
(§6) b) The test compounds are diluted to 500 μM with culture medium, then diluted in series eight times. […] as 25 μl/well. The final concentrations of the compounds are diluted from 100 μM to 0 μM, with 4 times dilution, and there are a total of 10 concentration points.
(§7) c) Cells are incubated for 72 hours in 5% CO2 incubator at temperature of 37° C. under the condition of 100% relative humidity.
(§8) d) The culture medium is aspirated and discarded, and complete medium containing 10% CCK-8 is incubated in a incubator at 37° C. for 2˜4 hours.
(§9) e) After shocking gently, the absorbance of the culture medium is measured at 450 nm wavelength on SpectraMax M5 Microplate Reader, with the absorbance at 650 nm as reference, to calculate the inhibition rate.

[3] = system: BT474 human breast cancer cell strain; assay: Antitumor cell proliferation in vitro, CCK-8 detection kit, BT474; format: cell-based; details: BT-474 cells, 1st and 2nd test where printed
Method: as §1
BT474 human breast cancer cell strain (cell bank of Chinese Academy of Sciences) Reagents and materials:
as §2, §3, §4, §5, §6, §7, §8, §9

[4] = system: U87MG human glioblastoma Multiforme cell strain; assay: Antitumor cell proliferation in vitro, CCK-8 detection kit, U87MG; format: cell-based; details: U-87 MG, 72 h, U-87MG cells, 1st and 2nd test where printed
Method: as §1
U87MG human glioblastoma Multiforme cell strain (cell bank of Chinese Academy of Sciences)
as §2, §3, §4, §5, §6, §7, §8, §9

PI3K α = biological target: T4, PI3K α (Homo sapiens, UniProt P42336); assay: Inhibitory activity to PI3K α, PI 3-Kinase (human) HTRF Assay kit; format: biochemical; details: read-out: % Inhibition Rate to PI3K α
T4 construct: purchased Millipore 14-602
From the text: Study on the inhibitory activity of the compounds of present invention to PI 3κα, PI3κδ and PI3κγ. Two or three concentrations of the compounds are selected to preliminary screening to calculate respectively the activity inhibition rate of the compounds of corresponding concentrations to enzyme, then the compounds with better activity are selected by preliminary screening for IC50 test.
PI 3-Kinase (human) HTRF™ Assay kit (Cat.33-017, Millipore)
PI 3k α (Cat.14-602, Millipore)
4× Reaction Buffer (Cat.33-002, Millipore) is diluted with ddH2O to 1.33×, and 1M DTT is added to make the final concentration as 6.67 mM. For example, 10 μL DTT is added into 500 μL 4× Reaction Buffer, and water is added to 1.5 mL.
The Test compounds are dissolved with DMSO to 1 mM as storage liquid. 2 μL of each of storage liquid is added into 48 μL ddH2O, to obtain the 40 μM compounds solution containing 4% DMSO. After mixing, 3 μL of each of the solution is added into 27 μL 4% DMSO (in ddH2O) to obtain the 4 μM compounds solution. 5 μL of each dilute solution is added into 384-well plates, then the final concentration of the compounds in the 20 μL final kinase reaction system is 10 μM and 1 μM respectively contained 1% DMSO. The dilution methods of compounds are similar to the preliminary screening in IC50 test.
2×PIP2 working fluid is prepared with 1.33× reaction buffer to the final concentration of 20 μM.
The screening concentration of PI 3k α kinase: 8 ng/well,
Kinase is diluted with 2×PIP2 operating fluid, the concentration of kinase operating fluid is 2 times of screening concentration.
10 mM ATP is diluted with 1.33× reaction buffer to 400 μM. The concentration of ATP is 100 μM in 20 μL kinase reaction system.
Stop A and Stop B are mixed according to the proportion of 3:1, and are placed for 2 hours at room temperature to obtain the stop solution available.
DM C, DM A and DM B are mixed according to the proportion of 18:1:1, and are placed for 2 hours at room temperature to obtain the detection solution available.

[5] = 1 μM (Table 7), read-out: Inhibition rate % to PI3Kδ
[6] = 10 μM (Table 7), read-out: Inhibition rate % to PI3Kδ

T2 sequence (P48736 whole entry): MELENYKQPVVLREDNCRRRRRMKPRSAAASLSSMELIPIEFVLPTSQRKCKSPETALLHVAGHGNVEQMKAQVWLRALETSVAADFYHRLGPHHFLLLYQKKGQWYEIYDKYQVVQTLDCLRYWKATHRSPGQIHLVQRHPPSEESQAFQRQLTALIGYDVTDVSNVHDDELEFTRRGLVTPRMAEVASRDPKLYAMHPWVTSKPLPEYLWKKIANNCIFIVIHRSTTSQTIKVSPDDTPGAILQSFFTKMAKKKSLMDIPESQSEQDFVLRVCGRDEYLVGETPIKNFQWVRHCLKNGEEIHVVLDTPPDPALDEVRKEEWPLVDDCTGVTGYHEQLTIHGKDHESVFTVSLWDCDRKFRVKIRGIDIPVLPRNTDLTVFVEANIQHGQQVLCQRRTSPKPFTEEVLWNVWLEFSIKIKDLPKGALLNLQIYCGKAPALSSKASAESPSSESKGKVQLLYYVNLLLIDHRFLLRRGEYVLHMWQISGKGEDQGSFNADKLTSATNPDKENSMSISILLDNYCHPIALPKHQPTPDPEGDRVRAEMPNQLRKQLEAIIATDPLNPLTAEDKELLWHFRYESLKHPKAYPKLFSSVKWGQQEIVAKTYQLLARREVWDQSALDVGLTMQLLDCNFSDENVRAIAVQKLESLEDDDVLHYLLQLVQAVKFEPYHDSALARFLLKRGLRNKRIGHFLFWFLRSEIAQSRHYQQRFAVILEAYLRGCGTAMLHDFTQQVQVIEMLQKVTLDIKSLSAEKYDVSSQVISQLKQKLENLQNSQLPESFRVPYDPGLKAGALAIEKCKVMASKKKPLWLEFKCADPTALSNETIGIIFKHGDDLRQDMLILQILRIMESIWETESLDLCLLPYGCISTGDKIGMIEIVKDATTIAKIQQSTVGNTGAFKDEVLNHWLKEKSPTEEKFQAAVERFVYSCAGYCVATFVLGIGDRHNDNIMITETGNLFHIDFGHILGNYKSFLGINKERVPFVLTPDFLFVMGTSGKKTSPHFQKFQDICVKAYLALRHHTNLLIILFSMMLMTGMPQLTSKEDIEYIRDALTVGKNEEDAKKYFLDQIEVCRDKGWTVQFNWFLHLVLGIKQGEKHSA
T1 sequence (P09619 33-1106): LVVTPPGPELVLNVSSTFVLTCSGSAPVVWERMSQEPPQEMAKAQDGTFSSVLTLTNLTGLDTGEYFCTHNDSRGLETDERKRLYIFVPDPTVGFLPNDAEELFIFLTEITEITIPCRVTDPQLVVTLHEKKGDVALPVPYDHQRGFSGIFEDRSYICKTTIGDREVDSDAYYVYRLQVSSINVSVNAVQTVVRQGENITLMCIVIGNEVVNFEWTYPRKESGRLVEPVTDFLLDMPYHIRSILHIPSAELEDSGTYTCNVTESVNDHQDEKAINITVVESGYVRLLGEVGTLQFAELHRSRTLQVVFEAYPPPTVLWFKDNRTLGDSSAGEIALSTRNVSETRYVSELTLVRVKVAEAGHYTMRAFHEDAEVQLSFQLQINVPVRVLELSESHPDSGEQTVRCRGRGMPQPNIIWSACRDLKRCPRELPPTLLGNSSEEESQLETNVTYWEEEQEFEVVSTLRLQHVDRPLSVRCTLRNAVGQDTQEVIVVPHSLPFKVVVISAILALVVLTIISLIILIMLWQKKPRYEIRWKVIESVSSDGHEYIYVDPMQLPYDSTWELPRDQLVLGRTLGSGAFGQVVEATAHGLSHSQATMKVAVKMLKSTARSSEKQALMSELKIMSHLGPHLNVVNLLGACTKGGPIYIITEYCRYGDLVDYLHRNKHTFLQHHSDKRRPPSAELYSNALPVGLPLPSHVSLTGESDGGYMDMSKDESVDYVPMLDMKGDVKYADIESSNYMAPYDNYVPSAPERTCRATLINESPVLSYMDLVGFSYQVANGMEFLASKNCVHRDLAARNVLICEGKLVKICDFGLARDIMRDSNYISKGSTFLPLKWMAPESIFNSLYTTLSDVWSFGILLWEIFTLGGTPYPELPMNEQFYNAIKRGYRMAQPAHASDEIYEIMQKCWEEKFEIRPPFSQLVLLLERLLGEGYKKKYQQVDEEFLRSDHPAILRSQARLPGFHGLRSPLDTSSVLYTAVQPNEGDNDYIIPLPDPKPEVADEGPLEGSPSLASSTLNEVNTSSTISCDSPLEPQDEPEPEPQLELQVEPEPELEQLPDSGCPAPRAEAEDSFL
T3 sequence (O00329 whole entry): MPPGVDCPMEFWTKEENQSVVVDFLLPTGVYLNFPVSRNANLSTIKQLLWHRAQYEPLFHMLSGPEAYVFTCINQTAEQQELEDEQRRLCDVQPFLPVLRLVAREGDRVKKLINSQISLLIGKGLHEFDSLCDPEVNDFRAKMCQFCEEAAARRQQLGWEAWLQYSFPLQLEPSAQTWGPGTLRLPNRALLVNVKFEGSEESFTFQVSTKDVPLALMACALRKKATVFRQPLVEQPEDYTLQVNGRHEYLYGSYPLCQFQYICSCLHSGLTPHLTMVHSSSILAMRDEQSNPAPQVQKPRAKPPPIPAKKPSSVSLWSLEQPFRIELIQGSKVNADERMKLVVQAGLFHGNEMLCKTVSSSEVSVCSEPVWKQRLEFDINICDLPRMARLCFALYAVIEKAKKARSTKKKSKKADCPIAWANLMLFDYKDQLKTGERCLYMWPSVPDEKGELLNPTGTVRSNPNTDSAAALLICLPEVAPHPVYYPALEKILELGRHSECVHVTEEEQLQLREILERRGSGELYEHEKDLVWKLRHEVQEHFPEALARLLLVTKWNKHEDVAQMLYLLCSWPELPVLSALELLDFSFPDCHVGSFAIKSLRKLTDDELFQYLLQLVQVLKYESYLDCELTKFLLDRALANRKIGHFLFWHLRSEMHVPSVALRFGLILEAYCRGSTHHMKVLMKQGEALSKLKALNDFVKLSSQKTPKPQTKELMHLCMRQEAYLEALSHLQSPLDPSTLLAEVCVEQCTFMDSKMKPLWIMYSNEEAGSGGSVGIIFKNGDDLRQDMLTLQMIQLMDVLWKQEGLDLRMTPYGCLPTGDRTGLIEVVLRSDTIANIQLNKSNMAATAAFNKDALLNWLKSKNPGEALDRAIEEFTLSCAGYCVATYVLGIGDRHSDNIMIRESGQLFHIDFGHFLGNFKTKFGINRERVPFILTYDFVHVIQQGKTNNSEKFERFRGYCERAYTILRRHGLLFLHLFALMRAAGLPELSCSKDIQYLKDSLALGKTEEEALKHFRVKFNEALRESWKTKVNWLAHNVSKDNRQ
T3 sequence (P27986 whole entry partner): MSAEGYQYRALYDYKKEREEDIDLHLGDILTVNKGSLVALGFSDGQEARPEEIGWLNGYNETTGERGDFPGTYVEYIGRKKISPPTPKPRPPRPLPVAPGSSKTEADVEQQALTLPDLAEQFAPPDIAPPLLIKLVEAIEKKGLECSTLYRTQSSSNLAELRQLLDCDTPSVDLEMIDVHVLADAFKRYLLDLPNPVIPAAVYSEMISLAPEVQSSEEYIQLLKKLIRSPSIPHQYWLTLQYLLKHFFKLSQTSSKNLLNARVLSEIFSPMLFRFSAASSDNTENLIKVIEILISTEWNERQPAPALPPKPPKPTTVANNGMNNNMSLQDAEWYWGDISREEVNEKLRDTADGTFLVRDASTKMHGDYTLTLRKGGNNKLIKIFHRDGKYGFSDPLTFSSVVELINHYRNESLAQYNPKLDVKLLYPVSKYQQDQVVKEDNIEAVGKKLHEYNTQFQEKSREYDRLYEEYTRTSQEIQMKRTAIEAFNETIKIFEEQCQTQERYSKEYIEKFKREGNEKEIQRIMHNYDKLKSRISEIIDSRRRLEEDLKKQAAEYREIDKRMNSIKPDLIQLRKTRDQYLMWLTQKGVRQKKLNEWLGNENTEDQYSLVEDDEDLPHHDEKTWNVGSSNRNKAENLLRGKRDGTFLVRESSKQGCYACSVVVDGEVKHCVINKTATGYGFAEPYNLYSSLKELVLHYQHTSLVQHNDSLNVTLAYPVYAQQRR
T4 sequence (P42336 whole entry): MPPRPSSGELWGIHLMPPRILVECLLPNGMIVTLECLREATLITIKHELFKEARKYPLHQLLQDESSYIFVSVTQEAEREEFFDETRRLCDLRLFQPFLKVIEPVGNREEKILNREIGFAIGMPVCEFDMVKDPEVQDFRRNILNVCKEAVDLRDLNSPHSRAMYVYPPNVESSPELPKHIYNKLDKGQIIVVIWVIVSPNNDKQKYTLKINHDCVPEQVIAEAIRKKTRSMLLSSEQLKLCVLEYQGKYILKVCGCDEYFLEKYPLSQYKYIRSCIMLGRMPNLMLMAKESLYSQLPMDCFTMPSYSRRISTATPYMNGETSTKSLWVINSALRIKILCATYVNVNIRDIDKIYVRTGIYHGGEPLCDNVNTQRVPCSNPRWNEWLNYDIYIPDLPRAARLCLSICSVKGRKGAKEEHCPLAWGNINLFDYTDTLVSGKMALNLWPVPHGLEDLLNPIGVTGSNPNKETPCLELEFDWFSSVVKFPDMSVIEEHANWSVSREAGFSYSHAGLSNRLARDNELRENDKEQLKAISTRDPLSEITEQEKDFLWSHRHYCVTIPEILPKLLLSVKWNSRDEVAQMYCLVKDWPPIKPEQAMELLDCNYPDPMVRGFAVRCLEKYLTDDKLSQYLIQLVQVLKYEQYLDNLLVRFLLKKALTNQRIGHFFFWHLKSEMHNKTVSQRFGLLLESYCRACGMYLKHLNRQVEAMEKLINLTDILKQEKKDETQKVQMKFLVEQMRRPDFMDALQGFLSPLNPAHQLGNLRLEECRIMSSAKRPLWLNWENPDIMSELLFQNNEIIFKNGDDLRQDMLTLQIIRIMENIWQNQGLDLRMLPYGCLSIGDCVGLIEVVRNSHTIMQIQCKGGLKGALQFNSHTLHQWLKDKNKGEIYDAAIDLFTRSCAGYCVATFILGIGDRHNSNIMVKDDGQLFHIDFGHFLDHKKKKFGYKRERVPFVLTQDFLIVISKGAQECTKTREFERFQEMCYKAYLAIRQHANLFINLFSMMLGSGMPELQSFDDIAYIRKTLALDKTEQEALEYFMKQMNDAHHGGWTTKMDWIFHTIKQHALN
T4 sequence (P27986 whole entry partner): as the sequence (P27986 whole entry partner) above

Q: How did the “Inhibition rate % (PDGFR β)” value (PDGFR β enzyme; 1 μM) turn out when `c1ccc(-c2ccnc3ccc(Nc4nc(NC5CC5)c5nc[nH]c5n4)cc23)cc1` [MED1007-31, N6-cyclopropyl-N2-(4-phenylquinoline-6-yl)-9H-purine-2,6 diamine] was run?
A: The value was 13.84%.

Q: What about the “Inhibition rate % (PDGFR β)” value (PDGFR β enzyme; 10 μM) of the same molecule?
A: Its value is 26.16%.

Q: What about the IC50 ([1]; Homo sapiens, PC-3, PC-3 cells) of the same molecule?
A: Its IC50 is 112 nM.

Q: And the “Inhibition rate % to PI3 K γ” value (PI3 K γ; 1 μM)?
A: The value was 11.33%.

Q: And the “Inhibition rate % to PI3 K γ” value (PI3 K γ; 10 μM)?
A: The value was 52.59%.

Q: And the “Inhibition rate % to PI3Kδ” value (PI3Kδ; 1 μM (Table 7), 1 µM)?
A: The value was 40.16%.

Q: What about the “Inhibition rate % to PI3Kδ” value (PI3Kδ; 10 μM (Table 7), 10 µM) of the same molecule?
A: Its value is 97.80%.

Q: `c1cnc2ccc(Nc3nc(OC4CCCC4)c4nc[nH]c4n3)cc2c1` [MED1007-35, N-(6-cyclopentyloxy-9H-purine-2-yl) quinoline-6-amine] was tested. Which inhibition at 1 µM (PDGFR β enzyme; 1 μM, read-out: Inhibition rate % (PDGFR β)) did it give?
A: Its inhibition at 1 µM is 54.8%.

Q: What about the inhibition at 10 µM (PDGFR β enzyme; 10 μM, read-out: Inhibition rate % (PDGFR β)) of the same molecule?
A: The inhibition at 10 µM was 99%.

Q: And the IC50 ([1]; Homo sapiens, PC-3, PC-3 cells)?
A: Its IC50 is 74.5 nM.

Q: What about the inhibition at 1 µM (PI3 K γ; 1 μM, read-out: Inhibition rate % to PI3 K γ) of the same molecule?
A: Its inhibition at 1 µM is 19.2%.

Q: What about the inhibition at 10 µM (PI3 K γ; 10 μM, read-out: Inhibition rate % to PI3 K γ) of the same molecule?
A: Its inhibition at 10 µM is 53%.

Q: What about the inhibition at 1 µM (PI3Kδ; [5]) of the same molecule?
A: The inhibition at 1 µM was 44.4%.

Q: And the inhibition at 10 µM (PI3Kδ; [6])?
A: The inhibition at 10 µM was 87.4%.

Q: What does the source list for `CC(C)Oc1nc(Nc2ccc3nccc(-c4ccccc4)c3c2)nc2[nH]cnc12` [MED1007-108, N-(6-isopropoxy-9H-purine-2-yl)-4-(phenyl-1-yl) quinoline-6-amine-methanesulfonate]?
A: IC50 ([2]; Homo sapiens, PC-3, 72 h): 71.6 nM; IC50 ([2]; 72 hours): 113 nM; IC50 ([3]; 72 hours): 35 nM; IC50 ([3]; Homo sapiens, BT-474, 72 h): 63 nM; IC50 ([1]; Homo sapiens, PC-3, PC-3 cells): 3.83 nM; IC50 ([1]; PC-3 cells): 6.51 nM; inhibition at 0.4 µM (PI3Kδ; 0.4 μM (Table 8), read-out: Inhibition rate % to PI3K delta): 40.5%; inhibition at 2 µM (PI3Kδ; 2 μM (Table 8), read-out: Inhibition rate % to PI3K delta): 78.6%; inhibition at 10 µM (PI3Kδ; 10 μM (Table 8), read-out: Inhibition rate % to PI3K delta): 89%

Q: For `CCC(CC)Oc1nc(Nc2ccc3nccc(-c4ccccc4)c3c2)nc2[nH]cnc12` [MED1007-105, N-(6-(pentyl-3-yloxyl)-9H-purine-2-yl)-4-phenyl quinoline-6-amine], which IC50 ([2]; Homo sapiens, PC-3, 72 h) is on record?
A: The IC50 was 1020 nM.

Q: What about the IC50 [4] of the same molecule?
A: Its IC50 is 41000 nM.

Q: What about the IC50 ([3]; Homo sapiens, BT-474, 72 h) of the same molecule?
A: The IC50 was 420 nM.

Q: And the inhibition at 1 µM (PI3K α; 1 μM)?
A: The inhibition at 1 µM was 60.4%.

Q: And the inhibition at 10 µM (PI3K α; 10 μM)?
A: The inhibition at 10 µM was 111%.

Q: And the inhibition at 1 µM (PI3Kδ; [5])?
A: Its inhibition at 1 µM is 74.2%.

Q: What about the inhibition at 10 µM (PI3Kδ; [6]) of the same molecule?
A: Its inhibition at 10 µM is 105%.
